Results reported in paper PMC7249761 (Journal of thoracic oncology : official publication of the …, 2016).

Columns and labels:
[1] = tested on: cytochrome P450 family 3 subfamily A member 4 [CYP3A4]; conditions: cited from earlier work
[2] = format: in vivo, patients; conditions: with crizotinib 150 mg twice daily; 3 plus 3 design

SMILES	CYP3A4 inhibition [1]	maximum tolerated dose (MTD) of erlotinib in the combination [2] [mg once daily]
C[C@@H](Oc1cc(-c2cnn(C3CCNCC3)c2)cnc1N)c1c(Cl)ccc(F)c1Cl [crizotinib]	moderate cytochrome P450 family 3 subfamily A member 4 [CYP3A4] inhibitor	–
C#Cc1cccc(Nc2ncnc3cc(OCCOC)c(OCCOC)cc23)c1 [erlotinib]	–	100
